Results as given in the supplement of paper PMC10307832.

Experiments:
Experiment in all cases: relative viability (nuclei count vs DMSO), 5 days (fraction); higher = more cells survive
[1] = compound: O=C(/C=C/c1cccnc1)NCCCCC1CCN(C(=O)c2ccccc2)CC1 [Daporinad] + Cc1nc(Nc2ncc(C(=O)Nc3c(C)cccc3Cl)s2)cc(N2CCN(CCO)CC2)n1 [Dasatinib] (partner 0.075 µM)
In short: (§1)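 Medians of duplicate plates are given as relative viability. That measure is the nuclei count in treated wells divided by the count in vehicle wells. Counts were taken on 4× images of lung cancer cell lines in 1536-well plates, 5 days after pin-tool dosing the day after seeding with one drug alone or a fixed anchor-drug dose plus five library-drug doses (not always all listed) in √10 steps.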

[2] = compound: O=C(/C=C/c1cccnc1)NCCCCC1CCN(C(=O)c2ccccc2)CC1 [Daporinad] + CS(=O)(=O)N1CCN(Cc2cc3nc(-c4cccc5[nH]ncc45)nc(N4CCOCC4)c3s2)CC1 [Pictilisib] (partner 1 µM)
In short: as §1

[3] = compound: O=C(/C=C/c1cccnc1)NCCCCC1CCN(C(=O)c2ccccc2)CC1 [Daporinad] + CC1(C)CCC(c2ccc(Cl)cc2)=C(CN2CCN(c3ccc(C(=O)NS(=O)(=O)c4ccc(N[C@H](CCN5CCOCC5)CSc5ccccc5)c(S(=O)(=O)C(F)(F)F)c4)cc3)CC2)C1 [Navitoclax] (partner 0.5 µM)
In short: as §1

[4] = compound: COc1cc(Nc2ncc(F)c(Nc3ccc4c(n3)NC(=O)C(C)(C)O4)n2)cc(OC)c1OC [R406] + CC(=O)c1c(C)c2cnc(Nc3ccc(N4CCNCC4)cn3)nc2n(C2CCCC2)c1=O [Palbociclib] (partner 0.5 µM)
In short: as §1

## UMC-11
[1]; first compound 0.0005 µM
  relative viability: 0.486
[1]; first compound 0.001581 µM
  relative viability: 0.507
[1]; first compound 0.005 µM
  relative viability: 0.394
[1]; first compound 0.01581 µM
  relative viability: 0.505
[2]; first compound 0.0005 µM
  relative viability: 0.908
[2]; first compound 0.001581 µM
  relative viability: 0.668
[2]; first compound 0.005 µM
  relative viability: 0.928
[2]; first compound 0.01581 µM
  relative viability: 0.993
[3]; first compound 0.0005 µM
  relative viability: 0.335
[3]; first compound 0.001581 µM
  relative viability: 0.33
[3]; first compound 0.005 µM
  relative viability: 0.377
[3]; first compound 0.01581 µM
  relative viability: 0.288
[4]; first compound 0.08 µM
  relative viability: 0.314
[4]; first compound 0.253 µM
  relative viability: 0.339
[4]; first compound 0.8 µM
  relative viability: 0.35
[4]; first compound 2.53 µM
  relative viability: 0.312
[4]; first compound 8 µM
  relative viability: 0.239
